The results in this text go back to US6921810B2, “Bifunctional antibiotics” (The Scripps Research Institute, priority 2000, dated 2005).

Converted amounts (≈) assume the structure as drawn.

The subject of series [1] is E. coli 16S rRNA A-site (AS-wt). Put plainly: Surface plasmon resonance binding to immobilized biotinylated A-site rRNA. The settings on record: SPR; for Kd: AS-wt; for affinity for AS-wt relative to neamine: compared with neamine. The protocol:
The dissociation constant (Kd) and binding stoichiometry were determined using surface plasmon resonance (SPR) against an immobilized rRNA sequence modeling the A-site of prokaryotic rRNA (FIGS. 1-4) (Hendrix, M.; et al. J. Am. Chem. Soc. 1997, 119, 3641; Wong, C.-H.; et al. Chem. Biol. 1998, 5, 397). […] We focused on neamine as it represents the simplest effective aminoglycoside antibiotic and contains the key β-hydroxyamine motif for interaction with the phosphodiester group and the Hoogsteen face of guanine residues in RNA (FIG. 2) (Hendrix, M.; et al. Angew. Chem., Int. Ed. Engl. 1997, 36, 95). […] Various dimers of neamine were therefore constructed in order to identify a bivalent aminoglycoside that would bind AS-wt with high affinity (FIG. 4), and at the same time resist and/or inhibit the modifying enzymes due to its unnatural structure (Some aminoglycoside dimers were prepared previously; however, the monomers bind the A-site stoichiometrically: see Michael; K.; et al. Bioorg. Med. Chem. 1999, 7, 1361; for vancomycin dimers, see Rao, J.; Whitesides, G. H. J. Am. Chem. Soc. 1997, 119, 10286; Sundram, U. N.; et al. J. Am. Chem. Soc. 1996, 118, 13107).
Reactions were performed under inert atmosphere unless otherwise stated. THF and CH2Cl2 were distilled under Ar with benzophenone ketyl and CaH2, respectively. NMR spectra were obtained on a Bruker AMX-400. The sites of enzymatic modification of neomycin and gentamicin that cause drug resistance are shown in FIG. 1 (Daigle, D. M.; et al. Chem. Biol. 1999, 6, 99). Synthesis of biotinylated RNAs and surface plasmon resonance experiments were performed as previously described and Kd values were also calculated as previously described (FIG. 2) (Hendrix, M.; et al. J. Am. Chem. Soc. 1997, 119, 3641).

Series [2] concerns CN(CCCCN(C)CC(O)COC1C(O)C(N)CC(N)C1OC1OC(CN)C(O)C(O)C1N)CC(O)COC1C(O)C(N)CC(N)C1OC1OC(CN)C(O)C(O)C1N. Put plainly: Km as substrate for AAC(6′)-Ii (6′-N-acetylation). The class given is biochemical. The settings on record: other: 6′-N-acetylation. The protocol:
(§1) They were in fact potent competitive inhibitors of the APH(2″) activity, Kis=0.8 μM for dimer 4, 0.1 μM for 6 and 0.7 μM for 27.
(§2) BF refers to the bifunctional enzyme AAC(6′)-APH(2″), where the particular activity is indicated. The neamine data were obtained from Daigle, D. M.; et al. Chem. Biol. 1999, 6, 99.

The test system of series [3] is NCC1OC(OC2C(N)CC(N)C(O)C2OCC(=O)NCCCCCNC(=O)COC2C(O)C(N)CC(N)C2OC2OC(CN)C(O)C(O)C2N)C(N)C(O)C1O. Put plainly: Km as substrate for AAC(6′)-Ii (6′-N-acetylation). Type of series: biochemical. The conditions noted are these: other: 6′-N-acetylation. The protocol:
as §1, §2

The test system of series [4] is NCC1OC(OC2C(N)CC(N)C(O)C2OCC(=O)NCCCNC(=O)COC2C(O)C(N)CC(N)C2OC2OC(CN)C(O)C(O)C2N)C(N)C(O)C1O. Put plainly: Km as substrate for AAC(6′)-Ii (6′-N-acetylation). Type of series: biochemical. The settings on record: other: 6′-N-acetylation. The protocol: as §1, §2
Series [5] concerns CN(CCCCN(C)CC(O)COC1C(O)C(N)CC(N)C1OC1OC(CN)C(O)C(O)C1N)CC(O)COC1C(O)C(N)CC(N)C1OC1OC(CN)C(O)C(O)C1N. Put plainly: Km as substrate for the AAC(6′) acetyltransferase activity of the bifunctional enzyme AAC(6′)-APH(2″) (BF). Type of series: biochemical. The settings on record: other: acetyltransferase activity of the bifunctional enzyme (BF). On the procedure:
as §1, §2

Series [6] deals with NCC1OC(OC2C(N)CC(N)C(O)C2OCC(=O)NCCCCCNC(=O)COC2C(O)C(N)CC(N)C2OC2OC(CN)C(O)C(O)C2N)C(N)C(O)C1O. The description is as above. The class given is biochemical. The conditions noted are these: other: acetyltransferase activity of the bifunctional enzyme (BF). On the procedure: as §1, §2
In series [7] the test system is NCC1OC(OC2C(N)CC(N)C(O)C2OCC(=O)NCCCNC(=O)COC2C(O)C(N)CC(N)C2OC2OC(CN)C(O)C(O)C2N)C(N)C(O)C1O. The description is as above. The class given is biochemical. The settings on record: other: acetyltransferase activity of the bifunctional enzyme (BF). On the procedure:
as §1, §2

Series [8] concerns E. coli ATCC 25922. Put plainly: Antimicrobial testing (MIC, NCCLS M7-A4). Type of series: cell-based. The conditions noted are these: Escherichia coli, ATCC25922; E. coli reference strain. The protocol: (§3) Antimicrobial Testing: The Kirby-Bauer Disk assay was performed as previously described (Hendrix, M.; et al. J. Am. Chem. Soc. 1997, 119, 3641; Phillips, I.; Williams, D. In Laboratory Methods in Antimicrobial Chemotherapy; Gerrod, L., Ed.; Churchill Livingstone Press: Edinburg, 1978; pp 3-30). Reference strains E. coli ATCC 25922 and S. aureus ATCC 25923 were obtained as lyophilized pellets (Difco). MIC testing was performed as recommended in the NCCLS Publication M7-A4.

For series [9], the target named is APH(2″) activity of AAC(6′)-APH(2″) (Staphylococcus aureus, UniProt P0A0C1). Put plainly: Aminoglycoside-modifying enzyme kinetics, APH(2″) activity of the bifunctional enzyme. Type of series: biochemical. The settings on record: for substrate for APH(2″) activity: in words. On the procedure:
as §1, §2

The target of series [10] is AAC(6′) activity of AAC(6′)-APH(2″) (Staphylococcus aureus, UniProt P0A0C1). Put plainly: Aminoglycoside-modifying enzyme kinetics, AAC(6′) activity of the bifunctional enzyme. The class given is biochemical. The conditions noted are these: in words. On the procedure: as §1, §2
AAC(6′) activity of AAC(6′)-APH(2″), sequence (P0A0C1 whole entry): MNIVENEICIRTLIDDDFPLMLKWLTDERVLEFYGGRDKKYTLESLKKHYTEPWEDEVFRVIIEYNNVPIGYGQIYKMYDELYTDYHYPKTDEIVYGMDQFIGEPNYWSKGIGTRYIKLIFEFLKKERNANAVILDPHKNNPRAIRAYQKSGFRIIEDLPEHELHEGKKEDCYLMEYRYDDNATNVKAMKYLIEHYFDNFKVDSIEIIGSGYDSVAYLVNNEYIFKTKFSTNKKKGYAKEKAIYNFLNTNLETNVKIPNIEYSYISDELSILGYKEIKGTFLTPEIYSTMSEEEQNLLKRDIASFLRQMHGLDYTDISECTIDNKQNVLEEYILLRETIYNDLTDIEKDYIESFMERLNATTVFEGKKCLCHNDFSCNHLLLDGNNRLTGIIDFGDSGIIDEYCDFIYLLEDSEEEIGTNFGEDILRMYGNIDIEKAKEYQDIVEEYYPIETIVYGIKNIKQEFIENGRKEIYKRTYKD
The target of series [11] is AAC(6′)-Ii (Enterococcus faecium, UniProt Q47764). Put plainly: Aminoglycoside-modifying enzyme kinetics, AAC(6′)-Ii. The conditions noted are these: in words. Type of series: biochemical. On the procedure: as §1, §2
AAC(6′)-Ii, sequence (Q47764 entry or part of it): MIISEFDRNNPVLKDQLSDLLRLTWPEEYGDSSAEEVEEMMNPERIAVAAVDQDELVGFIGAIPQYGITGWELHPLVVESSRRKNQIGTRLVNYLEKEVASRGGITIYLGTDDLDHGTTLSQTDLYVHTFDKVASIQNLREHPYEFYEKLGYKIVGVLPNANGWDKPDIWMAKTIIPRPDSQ
Series [12] concerns the target APH(3′)-IIIa (Enterococcus faecalis, UniProt P0A3Y5). Put plainly: Aminoglycoside-modifying enzyme kinetics, APH(3′)-IIIa. The settings on record: in words. Type of series: biochemical. On the procedure:
as §1, §2

Series [13] has as its system CN(CCCCN(C)CC(O)COC1C(O)C(N)CC(N)C1OC1OC(CN)C(O)C(O)C1N)CC(O)COC1C(O)C(N)CC(N)C1OC1OC(CN)C(O)C(O)C1N. Put plainly: Km as substrate for APH(3′)-IIIa (3′-O-phosphorylation). Type of series: biochemical. The conditions noted are these: other: 3′-O-phosphorylation. On the procedure:
as §1, §2

In series [14] the test system is NCC1OC(OC2C(N)CC(N)C(O)C2OCC(=O)NCCCCCNC(=O)COC2C(O)C(N)CC(N)C2OC2OC(CN)C(O)C(O)C2N)C(N)C(O)C1O. Described as above. The conditions noted are these: other: 3′-O-phosphorylation. The class given is biochemical. The protocol: as §1, §2
Series [15] relates to NCC1OC(OC2C(N)CC(N)C(O)C2OCC(=O)NCCCNC(=O)COC2C(O)C(N)CC(N)C2OC2OC(CN)C(O)C(O)C2N)C(N)C(O)C1O. The series is described as above. The class given is biochemical. The settings on record: other: 3′-O-phosphorylation. On the procedure:
as §1, §2

The subject of series [16] is E. faecalis ATCC 29212. Put plainly: Antibiotic activity against other strains. The class given is cell-based. The conditions noted are these: in words. On the procedure:
as §3

Series [17] relates to P. aeruginosa ATCC 27853. Put plainly: Antibiotic activity against other strains. The class given is cell-based. The conditions noted are these: in words. On the procedure: as §3
Series [18] deals with P. aeruginosa, PAO-1. Put plainly: Antibiotic activity against other strains. The settings on record: in words. The class given is cell-based. The protocol:
as §3

The test system of series [19] is S. aureus ATCC 29213. Put plainly: Antibiotic activity against other strains. Type of series: cell-based. The settings on record: in words. The protocol:
as §3

The subject of series [20] is S. aureus ATCC 33591-MRSA. Put plainly: Antibiotic activity against other strains. The class given is cell-based. The conditions noted are these: in words. On the procedure: as §3
The test system of series [21] is tobramycin-resistant strain of P. aeruginosa from cystic fibrosis patients. Put plainly: Antibiotic activity against a tobramycin-resistant strain. The class given is cell-based. The conditions noted are these: compared with tobramycin.

APH(3′)-IIIa, sequence (P0A3Y5 whole entry): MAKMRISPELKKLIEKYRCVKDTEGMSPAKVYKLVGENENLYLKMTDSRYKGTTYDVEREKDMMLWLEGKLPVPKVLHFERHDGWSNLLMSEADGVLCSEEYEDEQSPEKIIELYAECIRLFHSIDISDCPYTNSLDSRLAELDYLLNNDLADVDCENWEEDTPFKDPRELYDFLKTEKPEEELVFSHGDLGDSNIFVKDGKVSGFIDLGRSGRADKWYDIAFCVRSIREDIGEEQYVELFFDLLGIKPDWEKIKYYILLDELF
APH(2″) activity of AAC(6′)-APH(2″), sequence (P0A0C1 whole entry): as the sequence (P0A0C1 whole entry) above

For the compound `NC[C@H]1O[C@H](O[C@H]2[C@H](O)[C@@H](O)[C@H](N)C[C@@H]2N)[C@H](N)[C@@H](O)[C@@H]1O` [neamine, reference compound], binding in series [1] (for neamine per binding site) was characterised by a dissociation constant (Kd) of 10000 nM.
AAC(6′)-Ii (Enterococcus faecium): the Km in series [2] amounted to 28.7 µM; in [3] it was 83.6 µM; in series [4] it was 53.4 µM.
For “AAC(6′) activity of the bifunctional aminoglycoside modifying-enzyme AAC(6′)-APH(2″) (Staphylococcus aureus)”, the Km in series [5] came out at 0.53 µM; in series [6], 4.22 µM; in [7], 0.84 µM.
With `NCC1OC(OC2C(N)CC(N)C(O)C2OCC(=O)NCCCNC(=O)COC2C(O)C(N)CC(N)C2OC2OC(CN)C(O)C(O)C2N)C(N)C(O)C1O` (stereo not drawn) [Dimer 4, N,N′-1,3-bis(5-Ethylcarboxyl-neamine)propylamide], binding in series [1] (for neamine per binding site) was put at a Kd of 1100 nM. For the same compound, the “affinity for AS-wt relative to neamine” value in [1] is “ten-fold greater than neamine”. Besides, the minimal inhibitory concentration (MIC) in series [8] stood at 31 µM (≈ 24.8 µg/mL). Further, in series [9], the affinity, expressed as Ki, was 800 nM and the “substrate for APH(2″) activity” value is listed as “not substrates”. Besides, the “substrate for AAC(6′) activity of bifunctional enzyme” value (“substrate for AAC(6′) activity” below) in [10] is recorded as “poor substrates”. Besides, the “substrate for AAC(6′)-Ii” value in series [11] is listed as “poor substrates”. For the same compound, in [12], the “substrate for APH(3′)-IIIa” value is “poor substrates”.
`NCC1OC(OC2C(N)CC(N)C(O)C2OCC(=O)NCCCCCNC(=O)COC2C(O)C(N)CC(N)C2OC2OC(CN)C(O)C(O)C2N)C(N)C(O)C1O` (stereo not drawn) [Dimer 6, N,N′-1,3-bis(5-Ethylcarboxyl-neamine)pentylamide] returned a Kd in series [1] (for neamine per binding site) of 800 nM. Besides, in [1], the “affinity for AS-wt relative to neamine” value is on record as “ten-fold greater than neamine”. The same compound showed an MIC in [8] of 125 µM (≈ 103 µg/mL). For the same compound, in [9], the affinity, expressed as Ki, was 100 nM and the “substrate for APH(2″) activity” value was “not substrates”. Further, the “substrate for AAC(6′) activity” value in series [10] is “poor substrates”. In series [11], the “substrate for AAC(6′)-Ii” value is “poor substrates”. For the same compound, the “substrate for APH(3′)-IIIa” value in series [12] was “poor substrates”.
Regarding APH(3′)-IIIa (Enterococcus faecalis), the Km in series [13] was determined as 1.1 µM; in [14] it was 2.66 µM; in series [15] it was 0.82 µM.
As for `CN(CCCCN(C)CC(O)COC1C(O)C(N)CC(N)C1OC1OC(CN)C(O)C(O)C1N)CC(O)COC1C(O)C(N)CC(N)C1OC1OC(CN)C(O)C(O)C1N` (stereo not drawn) [Dimer 27], in series [1], the Kd turned out to be 40 nM. The compound also yielded an MIC in series [8] of 6.25 µM (≈ 5.46 µg/mL). Besides, the Ki in [9] amounted to 700 nM. For the same compound, the “substrate for APH(2″) activity” value in [9] is listed as “not substrates”. Also, the “substrate for AAC(6′) activity” value in series [10] is “poor substrates”. In addition, the “substrate for AAC(6′)-Ii” value in [11] is listed as “poor substrates”. For the same compound, in [12], the “substrate for APH(3′)-IIIa” value is “poor substrates”. Further, the antibiotic activity result in [16], in [17], in series [18], in series [19] and in series [20] was “effective” each time. Moreover, the “effectiveness relative to tobramycin” value in [21] amounted to 3 times.
